This is an account of results in patent EP2444396A1, “PHOTOPROTECTIVE COMPOSITION” (Apoteknos Para La Piel, S.L., priority 2009, dated 2010).

Values joined by “and” are separate entries in the source; they are usually repeats but may differ in a detail not shown here. Equal values may be shown once.

The nature of the series: UV spectrum: wavelengths of maximum absorption and absorbance (Cecil 2021 UV-Visible Spectrophotometer). The series is classed as physicochemical. The note with it: for UV spectrum A (a.u): absorbance at the maximum of the same line; for UV spectrum λ (nm): wavelengths of the maximum absorption.

With `Oc1ccc(-c2nc(-c3ccccc3)c(-c3ccccc3)[nH]2)cc1` [2-(4-hydroxyphenyl)-4,5-diphenyl-1H-imidazole], the “UV spectrum A (a.u)” value was 1.015 a.u and 1.364 a.u; the “UV spectrum λ (nm)” value is 225.0 nm and 300.5 nm.
Turning to `O=[N+]([O-])c1ccc(-c2nc(-c3ccc([N+](=O)[O-])cc3)c(-c3ccc([N+](=O)[O-])cc3)[nH]2)cc1` [2,4,5-tris(4-nitrophenyl)-1H-imidazole], the “UV spectrum A (a.u)” value is 1.410 a.u and 1.923 a.u; the “UV spectrum λ (nm)” value was 236.0 nm and 370.0 nm.
For the molecule `Fc1ccc(-c2nc(-c3ccccc3)c(-c3ccccc3)[nH]2)cc1` [2-(4-fluorophenyl)-4,5-diphenyl-1H-imidazole], the “UV spectrum A (a.u)” value was 1.117 a.u and 1.536 a.u; the “UV spectrum λ (nm)” value was 224.0 nm and 297.5 nm.
For `C(=C\c1nc(-c2ccccc2)c(-c2ccccc2)[nH]1)/c1ccccc1` [(E)-2-styryl-4,5-diphenyl-1H-imidazole], the “UV spectrum λ (nm)” value was 235.2 nm and 344.4 nm.
For the molecule `c1ccc(-c2nc(-c3ccccc3)c(-c3ccccc3)[nH]2)cc1` [2,4,5-triphenyl-1H-imidazole], the “UV spectrum A (a.u)” value was 0.817 a.u and 1.093 a.u; the “UV spectrum λ (nm)” value is 209.0 nm and 296.0 nm.
Turning to `Clc1ccc(-c2nc(-c3ccccc3)c(-c3ccccc3)[nH]2)cc1` [2-(4-chlorophenyl)-4,5-diphenyl-1H-imidazole], the “UV spectrum A (a.u)” value is 1.066 a.u and 1.371 a.u; the “UV spectrum λ (nm)” value is 231.5 nm and 308.0 nm.
As to `CN(C)c1ccc(-c2nc(-c3ccccc3)c(-c3ccccc3)[nH]2)cc1` [2-[4-(N,N-dimethylamino)phenyl]-4,5-diphenyl-1H-imidazole], the “UV spectrum A (a.u)” value was 2.032 a.u and 2.692 a.u; the “UV spectrum λ (nm)” value is 209.5 nm and 322 nm.
For `O=[N+]([O-])c1ccc(-c2nc3c4ccccc4c4ccccc4c3[nH]2)cc1` [2-(4-nitrophenyl)-1H-phenanthro[9,10-d]imidazole], the “UV spectrum λ (nm)” value was 202.0 nm and 256.0 nm and 388.5 nm.
The same measure, in the same setting: to `COc1ccc(-c2nc(-c3ccccc3)c(-c3ccccc3)[nH]2)cc1` [2-(4-methoxyphenyl)-4,5-diphenyl-1H-imidazole] belongs 252.5 nm and 297.5 nm; to `O=[N+]([O-])c1ccc(/C=C/c2nc(-c3ccccc3)c(-c3ccccc3)[nH]2)cc1` [(E)-2-(4-nitrostyryl)-4,5-diphenyl-1H-imidazole], 202.0 nm and 282.5 nm and 398.5 nm.
